Read-outs that look alike come from different tables or passages of the source.
What was measured:
acute VVC episodes [1] = experiment: Study CL-017 efficacy versus fluconazole, acute VVC episodes; format: in vivo, human
[2] = Study CL-005 in subjects with onychomycosis, plasma PK; format: in vivo; conditions: human; for AUC(0-t): read-out: AUC0-8; for concentration at 12 weeks: after 12 weeks; for concentration at 12 weeks / concentration at 24 weeks: read-out: plasma exposure; for concentration at 24 weeks: after 24 weeks
Description: Within each treatment group, oteseconazole plasma exposures increased throughout the dosing regimen from Day 1 to Week 12 or 24. […] Mean Cmax and AUC0-8 values after the Day 14 dose (completion of the loading dose phase of the study) were similar for the 300 mg 12-week and 300 mg 24-week treatment groups, and for the 600 mg 12-week and 600 mg 24-week treatment groups, as expected.

Study CL-006 plasma PK = format: in vivo, human; conditions: for AUC(0-t): read-out: AUC0-8
Excerpt: Oteseconazole plasma concentrations continued to increase after the 7-day loading dose portion of the Maintenance Period until the end of dosing in an approximately dose-proportional manner FIG. 3.
Mean plasma PK parameters on Day 7 of the Maintenance Period are presented by treatment group in Table 12.

[3] = Study CL-012 plasma concentrations; format: in vivo; conditions: human
Description: Oteseconazole mean (SD) plasma concentration increased with dosing for 12 weeks, reaching a maximum concentration of 3605.8 (1518.08) μg/L at Week 12. At the end of dosing, there was a slow decrease in oteseconazole plasma concentration, reaching 1122.0 (656.14) μg/L by Week 48 (FIG. 5). Following the loading dose regimen of 150 mg oteseconazole QD for 7 days, the mean (SD) oteseconazole plasma concentration at Day 14 was 1785.5 (747.75) μg/L.

Tinea Pedis = experiment: Study CL-003 therapeutic cure of tinea pedis; format: in vivo, human
Excerpt: Even though the target concentrations were not reached for either dose group in this study, oteseconazole was efficacious in treating TP.

Candida species = experiment: Phase 2a dose-ranging study in moderate-to-severe acute VVC, effective therapeutic cure; format: in vivo, human; conditions: Per Protocol population
Description: (§1) Oteseconazole has previously been evaluated in a Phase 2a multi-center, randomized, double-blind, active-controlled, parallel-group, dose-ranging study in patients with moderate-to-severe acute VVC. A total of 55 subjects with moderate-to-severe acute VVC (severity score ≥6 and a positive fungal KOH test) participated in the study across 4 dose groups: 1) oteseconazole 300 mg qd for 3 days: 2) 600 mg qd for 3 days: 3) 600 mg bid for 3 days; or 4) a single dose of fluconazole 150 mg followed by matching placebo. […] No safety signals of clinical concern were observed from the safety assessments.
The efficacy of oteseconazole in the treatment of moderate-to-severe acute VVC was evaluated at the TOC visit in the Per Protocol population at the Day 28 test of cure (TOC) visit was, 87%, 86%, 86%, and 75% of subjects receiving the low, mid-, or high-dose oteseconazole or comparator arm of fluconazole, respectively, achieved an effective therapeutic cure (defined as having a total clinical signs and symptoms severity score of ≤1 and a negative culture for Candida species) in the Per Protocol population

[4] = Phase 2b study and three Phase 3 studies, plasma concentration at end of dosing; format: in vivo; conditions: human, oral, loading dose Days 1 and 2, then 150 mg weekly, read-out: mean plasma concentrations at the end of the dosing period (Week 14)
Description: Oteseconazole dosing regimens will also incorporate a 150 mg once weekly maintenance dose phase for 11 weeks. The initial loading dose given on Days 1 and 2 combined with maintenance dosing of 150 mg oteseconazole weekly for a total treatment duration of 12 weeks was efficacious in preventing recurrence of acute VVC episodes for the duration of the study (48-50 weeks). Based on the PK results from a Phase 2b study and three Phase 3 studies, mean plasma concentrations of approximately 2.5 to 3.5 μg/mL are observed at the end of the dosing period (Week 14).

[5] = Phase 2a acute VVC study, safety; format: in vivo, human; conditions: administered for 3 days
Description: as §1

acute VVC episodes [6] = experiment: Study CL-012 culture-verified acute VVC episodes; format: in vivo, human; conditions: 150 mg QD for 7 days, then 150 mg QW for 11 weeks
Description: The average percentage of subjects with one or more culture-verified acute VVC episodes in the 150 mg oteseconazole group was 3.9% versus 39.4% in the placebo group.

[7] = 300 mg, Day 14, Low Dose (300 mg), 12 weeks
[8] = 300 mg, Day 14, Low Dose (300 mg), 24 weeks
[9] = 600 mg, Day 14, High Dose (600 mg), 12 weeks
[10] = 600 mg, Day 14, High Dose (600 mg), 24 weeks
[11] = human, plasma, 150 mg, Day 7, 150 mg, 12 weeks
[12] = human, plasma, 150 mg, Day 7, 150 mg, 24 weeks
[13] = human, plasma, 300 mg, Day 7, 300 mg, 12 weeks
[14] = human, plasma, 300 mg, Day 7, 300 mg, 24 weeks

With `O[C@@](Cn1cnnn1)(c1ccc(F)cc1F)C(F)(F)c1ccc(-c2ccc(OCC(F)(F)F)cc2)cn1` [Oteseconazole, oteseconazole] the “efficacy of enhanced loading dose compared with fluconazole” value (acute VVC episodes [1]; 600 mg Day 1 and 450 mg Day 2 versus fluconazole three 150 mg doses 72 hours apart) was “noninferior to fluconazole”, the “average percentage of subjects with 1 or more culture-verified acute VVC episodes” value (acute VVC episodes [1]; including subjects who had a recurrence during the Induction Phase) was 5.1% and the Cmax [2, 7] was 5120 ng/mL. The AUC(0-t) [2, 7] was 36700 ng·h/mL, the Cmax [2, 8] was 5510 ng/mL and the AUC(0-t) [2, 8] was 40100 ng·h/mL. It also gave a Cmax [2, 9] of 8290 ng/mL, an AUC(0-t) [2, 9] of 59700 ng·h/mL and a Cmax [2, 10] of 8390 ng/mL. For the same compound, the AUC(0-t) [2, 10] was 61600 ng·h/mL, the Tmax ([2]; Day 14, High Dose (600 mg), 12 weeks) was 5 h and the Tmax ([2]; Day 14, Low Dose (300 mg), 12 weeks) was 5 h. The concentration at 12 weeks ([2]; 300 mg 12-week treatment group) was 6750 ng/mL, the concentration at 12 weeks ([2]; 600 mg 12-week treatment group) was 12300 ng/mL and the concentration at 24 weeks ([2]; 300 mg 24-week treatment group) was 9230 ng/mL. For the same compound, the concentration at 24 weeks ([2]; 600 mg 24-week treatment group) was 15600 ng/mL, the Tmax (Study CL-006 plasma PK; Day 7, 150 mg, 24 weeks) was 4.93 h and the Tmax (Study CL-006 plasma PK; Day 7, 300 mg, 12 weeks) was 4.92 h. For the same compound, the Cmax (Study CL-006 plasma PK; [11]) was 1340 ng/mL, the AUC(0-t) (Study CL-006 plasma PK; [11]) was 9120 ng·h/mL and the Cmax (Study CL-006 plasma PK; [12]) was 1800 ng/mL. For the same compound, the AUC(0-t) (Study CL-006 plasma PK; [12]) was 12300 ng·h/mL, the Cmax (Study CL-006 plasma PK; [13]) was 2750 ng/mL and the AUC(0-t) (Study CL-006 plasma PK; [13]) was 20500 ng·h/mL. It also gave a Cmax (Study CL-006 plasma PK; [14]) of 3120 ng/mL, an AUC(0-t) (Study CL-006 plasma PK; [14]) of 21600 ng·h/mL and a concentration at 48 week (Study CL-006 plasma PK; human, plasma, 150 mg oteseconazole) of 2150 ng/mL. For the same compound, the concentration at 48 week (Study CL-006 plasma PK; human, plasma, 300 mg oteseconazole) was 5090 ng/mL, the Tmax (Study CL-006 plasma PK; human, plasma, Day 7, 150 mg, 12 weeks, read-out: Tmax) was 4 h and the half-life (Study CL-006 plasma PK; human, plasma, calculated using a population PK approach) was ~171 days. It also gave a concentration at 12 week ([3]; 150 mg, Week 12, maximum concentration, read-out: mean (SD) plasma concentration) of 3610 ng/mL, a concentration at 48 week ([3]; 150 mg, Week 48, read-out: mean (SD) plasma concentration) of 1120 ng/mL and a concentration at 14 day ([3]; Day 14, after loading 150 mg QD for 7 days, read-out: mean (SD) plasma concentration) of 1790 ng/mL. It also gave a therapeutic cure (Tinea Pedis; high dose group) of 21.4%, a therapeutic cure (Tinea Pedis; low dose group) of 16.7% and a therapeutic cure (Tinea Pedis; mid dose group) of 8.3%. For the same compound, the “subjects achieving effective therapeutic cure at Day 28 TOC visit” value (Candida species; high dose, oteseconazole 600 mg bid for 3 days) was 86%, the “subjects achieving effective therapeutic cure at Day 28 TOC visit” value (Candida species; low dose, oteseconazole 300 mg qd for 3 days) was 87% and the “subjects achieving effective therapeutic cure at Day 28 TOC visit” value (Candida species; mid dose, oteseconazole 600 mg qd for 3 days) was 86%. For the same compound, the concentration at 14 week [4] was 2500 to 3500 ng/mL, the serious adverse events [5] was “no serious adverse events” and the safety and tolerability ([5]; 300 mg qd to 600 mg bid) was “safe and well tolerated”. For the same compound, the “average percentage of subjects with one or more culture-verified acute VVC episodes” value (acute VVC episodes [6]) was 3.9%.

From patent US20240398773A1, “COMPOSITIONS COMPRISING OTESECONAZOLE” (Mycovia Pharmaceuticals, Inc., priority 2021, published 2024)
